Measurements as given in US20250313563A1, “GLYCOGEN SYNTHASE KINASE 3 INHIBITORS AND USES THEREOF” (The Broad Institute, Inc., priority 2022, published 2025).
Like-named read-outs stand apart in the source and are kept apart here.

Tests used:
[1] = target: GSK3b (GST-full length GSK3b) (Homo sapiens (Human), UniProt P49841); assay: GSK3b TR-FRET kinase assay; format: biochemical
How it was run: (§1)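 Compound preincubated 30 min, then 1 nM GST-full-length GSK3α or GSK3b run 100 min at ambient temperature with 200 nM biotinylated, S645-prephosphorylated glycogen synthase 631-650 peptide in Tris pH 7.5, MgCl2, DTT, BSA, 1% DMSO. ATP 4 μM (α) or 2 μM (β), or 1 mM. EDTA-quenched; Tb-anti-pSer641/streptavidin-d2 TR-FRET 665/615 ratio gave IC50.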

[2] = target: GSK3α (GST-full length GSK3α) (Homo sapiens (Human), UniProt P49840); assay: GSK3α TR-FRET kinase assay; format: biochemical
Sequence of GSK3α (GST-full length GSK3α) (P49840 whole entry): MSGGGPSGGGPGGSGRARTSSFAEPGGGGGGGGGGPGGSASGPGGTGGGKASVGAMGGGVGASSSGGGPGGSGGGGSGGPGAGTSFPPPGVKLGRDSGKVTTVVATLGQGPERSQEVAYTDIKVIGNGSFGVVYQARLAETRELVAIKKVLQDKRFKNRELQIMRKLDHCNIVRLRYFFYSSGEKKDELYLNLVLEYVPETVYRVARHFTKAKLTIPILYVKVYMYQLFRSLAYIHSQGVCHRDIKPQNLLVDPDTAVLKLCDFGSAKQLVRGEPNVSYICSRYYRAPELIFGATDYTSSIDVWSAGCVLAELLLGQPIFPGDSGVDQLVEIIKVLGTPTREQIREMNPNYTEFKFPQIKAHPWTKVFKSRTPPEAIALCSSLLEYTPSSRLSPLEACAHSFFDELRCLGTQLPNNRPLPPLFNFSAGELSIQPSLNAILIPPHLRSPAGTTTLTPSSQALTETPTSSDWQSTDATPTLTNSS
How it was run: as §1

[3] = 1 nM GSK3b, 2 μM ATP, 30 minute preincubation, Table 16, read-out: GSK3-B TR-FRET BIOCHEMICAL (TR-FRET)
[4] = 1 nM GSK3α, 4 μM ATP, 30 minute preincubation, Table 16, read-out: GSK3-A TR-FRET BIOCHEMICAL (TR-FRET)
[5] = 1 nM GSK3b, 2 μM ATP, 30 minute preincubation, read-out: GSK3-B TR-FRET BIOCHEMICAL (TR-FRET), IC50
[6] = 1 nM GSK3α, 4 μM ATP, 30 minute preincubation, read-out: GSK3-A TR-FRET BIOCHEMICAL (TR-FRET), IC50
[7] = read-out: GSK3-B (TR-FRET 1 mM ATP), GMean, IC50, 1 mM ATP, geometric mean
[8] = read-out: GSK3-A (TR-FRET 1 mM ATP), GMean, IC50, 1 mM ATP, geometric mean
[9] = GSK3-B (TR-FRET 1 mM ATP), GMean, IC50, 1 mM ATP, geometric mean
[10] = GSK3-A (TR-FRET 1 mM ATP), GMean, IC50, 1 mM ATP, geometric mean

Sequence of GSK3b (GST-full length GSK3b) (P49841 whole entry): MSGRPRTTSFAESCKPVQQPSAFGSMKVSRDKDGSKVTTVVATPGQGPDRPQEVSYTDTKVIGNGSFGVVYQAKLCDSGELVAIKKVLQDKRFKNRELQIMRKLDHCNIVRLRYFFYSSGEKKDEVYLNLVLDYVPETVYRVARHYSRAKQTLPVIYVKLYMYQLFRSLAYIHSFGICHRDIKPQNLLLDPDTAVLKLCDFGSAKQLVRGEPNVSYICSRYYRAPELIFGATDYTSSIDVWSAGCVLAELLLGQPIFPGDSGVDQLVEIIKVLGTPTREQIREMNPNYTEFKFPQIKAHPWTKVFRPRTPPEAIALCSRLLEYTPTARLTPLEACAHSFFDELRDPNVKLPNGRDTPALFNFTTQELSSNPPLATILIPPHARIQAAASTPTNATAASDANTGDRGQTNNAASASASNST

IC50 [1, 3] [nM] | IC50 [2, 4] [nM] | IC50 [1, 5] [nM] | IC50 [2, 6] [nM] | SMILES | also measured
> 5000 | 1000 to 5000 |  |  | CC[C@]1(c2cccc(S(=O)(=O)CCOC)c2)C2=C(CC(C)(C)CC2=O)Nc2n[nH]cc21 [Compound 943546] | 
> 5000 | 1000 to 5000 |  |  | CCC1(c2cccc(S(=O)(=O)C3CCCCC3)c2)C2=C(CC(C)(C)CC2=O)Nc2n[nH]cc21 (stereo not drawn) [Compound 943547] | 
100 to 1000 | ≤ 100 |  |  | CC1(C)CC(=O)C2=C(C1)Nc1n[nH]cc1C21CCC(n2cnnc2)CC1 (stereo not drawn) [Compound 943894] | 
100 to 1000 | 100 to 1000 |  |  | Cc1noc(C2CCC3(CC2)C2=C(CC(C)(C)CC2=O)Nc2n[nH]cc23)n1 (stereo not drawn) [Compound 943895] | 
 |  | ≤ 100 | ≤ 100 | C[C@H]1C[C@@H]2C[C@]3(C[C@@H]2C1)C1=C(CC(C)(C)CC1=O)Nc1n[nH]cc13 [Compound 943896] | 
 |  | ≤ 100 | ≤ 100 | C[C@@H]1C[C@@H]2C[C@]3(C[C@@H]2C1)C1=C(CC(C)(C)CC1=O)Nc1n[nH]cc13 [Compound 943898] | 
 |  | 1000 to 5000 | ≤ 100 | CCC1(c2cccc(-c3cnn(C)c3)c2)C2=C(CC(C)(C)NC2=O)Nc2n[nH]cc21 (stereo not drawn) [Compound 943912] | 
≤ 100 | ≤ 100 |  |  | CC[C@]1(c2cccc(-c3ccncc3C(F)(F)F)c2)C2=C(CC(C)(C)CC2=O)Nc2n[nH]cc21 [Compound 943913] | IC50 [1, 7]: 100 to 1000 nM; IC50 [2, 8]: ≤ 100 nM
 |  |  |  | CC1(C)CC(=O)C2=C(C1)Nc1n[nH]cc1C21CN(CC2CCCC2)C1 [Compound 943914] | IC50 ([1]; 1 nM GSK3b, 2 μM ATP, 30 minute preincubation, Table 16, read-out: GSK3-B TR-FRET BIOCHEMICAL (TR-FRET), IC50): > 5000 nM; IC50 ([2]; 1 nM GSK3α, 4 μM ATP, 30 minute preincubation, Table 16, read-out: GSK3-A TR-FRET BIOCHEMICAL (TR-FRET), IC50): > 5000 nM
100 to 1000 | ≤ 100 |  |  | CC[C@]1(c2cccc(-c3ccnc(C(F)F)c3)c2)C2=C(CC(C)(C)CC2=O)Nc2n[nH]cc21 [Compound 943919] | 
 |  | ≤ 100 | ≤ 100 | CC1(C)CC(=O)C2=C(C1)Nc1n[nH]cc1[C@@]21COC2(CN(C(=O)c3ccccc3)C2)C1 [Compound 943955] | 
 |  | 1000 to 5000 | 100 to 1000 | CC1(C)CC(=O)C2=C(C1)Nc1n[nH]cc1C21COC2(CN(C(=O)c3ccccc3)C2)C1 (stereo not drawn) [Compound 943956] | 
 |  | 1000 to 5000 | 100 to 1000 | CC1(C)CC(=O)C2=C(C1)Nc1n[nH]cc1C21COC2(CN(C(=O)C3CCCC3)C2)C1 (stereo not drawn) [Compound 943958] | 
 |  | 100 to 1000 | ≤ 100 | CC1(C)CC2=C(C(=O)N1)C1(CCN(S(C)(=O)=O)CC1)c1c[nH]nc1N2 [Compound 943959] | 
 |  | ≤ 100 | ≤ 100 | CC1(C)CC2=C(C(=O)N1)C1(CCN(S(=O)(=O)C3CCCC3)CC1)c1c[nH]nc1N2 [Compound 943960] | IC50 [1, 9]: 100 to 1000 nM; IC50 [2, 10]: 100 to 1000 nM
≤ 100 | ≤ 100 | ≤ 100 | ≤ 100 | Cn1ccc(S(=O)(=O)N2CCC3(CC2)C2=C(CC(C)(C)NC2=O)Nc2n[nH]cc23)n1 [Compound 943961] | IC50 [1, 9]: > 5000 nM; IC50 [2, 10]: 100 to 1000 nM
100 to 1000 | ≤ 100 | 100 to 1000 | ≤ 100 | COc1cccc(S(=O)(=O)N2CCC3(CC2)C2=C(CC(C)(C)CC2=O)Nc2n[nH]cc23)c1 [Compound 943962] | 
 |  | ≤ 100 | ≤ 100 | CC1(C)CC2=C(C(=O)N1)C1(CCN(S(=O)(=O)c3ccc(F)cc3)CC1)c1c[nH]nc1N2 [Compound 943963] | 
 |  | ≤ 100 | ≤ 100 | CC[C@@]1(c2cccc(N(C)c3ncccn3)c2)C2=C(CC(C)(C)NC2=O)Nc2n[nH]cc21 [Compound 943964] | IC50 [1, 7]: 1000 to 5000 nM; IC50 [2, 8]: 100 to 1000 nM
 |  | > 5000 | 100 to 1000 | CC[C@]1(c2cccc(N(C)c3ncccn3)c2)C2=C(CC(C)(C)NC2=O)Nc2[nH]ncc21 [Compound 943965] | 
 |  | 100 to 1000 | ≤ 100 | CCC1(c2cccc(-c3cc(C)nn3C)c2)C2=C(CC(C)(C)NC2=O)Nc2n[nH]cc21 (stereo not drawn) [Compound 943966] | 
 |  | > 5000 | > 5000 | CC[C@]1(c2cccc(-c3cc(C)nn3C)c2)C2=C(CC(C)(C)NC2=O)Nc2n[nH]cc21 [Compound 943967] | 
1000 to 5000 | 100 to 1000 |  |  | CCC1(c2cccc(-c3ccnc(OC(F)(F)F)c3)c2)C2=C(CC(C)(C)CC2=O)Nc2n[nH]cc21 (stereo not drawn) [Compound 943988] | 
≤ 100 | ≤ 100 |  |  | CCC1(c2cccc(-c3ccncc3C)c2)C2=C(CC(C)(C)CC2=O)Nc2n[nH]cc21 (stereo not drawn) [Compound 943990] | IC50 [1, 7]: 100 to 1000 nM; IC50 [2, 8]: ≤ 100 nM

IC50 [1, 3] [nM] | IC50 [2, 4] [nM] | IC50 [1, 5] [nM] | IC50 [2, 6] [nM] | SMILES | also measured
100 to 1000 | ≤ 100 |  |  | CCC1(c2cccc(-c3ccnc(O)c3)c2)C2=C(CC(C)(C)CC2=O)Nc2n[nH]cc21 (stereo not drawn) [Compound 943992] | 
≤ 100 | ≤ 100 |  |  | CCC1(c2cccc(-c3cnnc(C)c3)c2)C2=C(CC(C)(C)CC2=O)Nc2n[nH]cc21 (stereo not drawn) [Compound 943994] | IC50 [1, 7]: 1000 to 5000 nM; IC50 [2, 8]: 100 to 1000 nM
≤ 100 | ≤ 100 |  |  | CCC1(c2cccc(-c3c(C)nnn3C)c2)C2=C(CC(C)(C)CC2=O)Nc2n[nH]cc21 (stereo not drawn) [Compound 943996] | IC50 [1, 7]: 100 to 1000 nM; IC50 [2, 8]: ≤ 100 nM
≤ 100 | ≤ 100 |  |  | CCC1(c2cccc(S(=O)(=O)C3COC3)c2)C2=C(CC(C)(C)CC2=O)Nc2n[nH]cc21 (stereo not drawn) [Compound 944017] | 
≤ 100 | ≤ 100 |  |  | CCC1(c2cccc(S(=O)(=O)C3CCOC3)c2)C2=C(CC(C)(C)CC2=O)Nc2n[nH]cc21 (stereo not drawn) [Compound 944018] | 
≤ 100 | ≤ 100 |  |  | CCC1(c2cccc(S(=O)(=O)C3CC(F)(F)C3)c2)C2=C(CC(C)(C)CC2=O)Nc2n[nH]cc21 (stereo not drawn) [Compound 944019] | 
 |  | 100 to 1000 | ≤ 100 | CCC1(c2cccc(-c3cn[nH]c3)c2)C2=C(CC(C)(C)NC2=O)Nc2n[nH]cc21 (stereo not drawn) [Compound 944022] | 
100 to 1000 | ≤ 100 |  |  | CCc1cccc(N(C)c2cccc(C3(CC)C4=C(CC(C)(C)CC4=O)Nc4n[nH]cc43)c2)n1 (stereo not drawn) [Compound 944023] | 
100 to 1000 | ≤ 100 |  |  | CCC1(c2cccc(-c3cnco3)c2)C2=C(CC(C)(C)CC2=O)Nc2n[nH]cc21 (stereo not drawn) [Compound 944025] | 
≤ 100 | ≤ 100 |  |  | CCC1(c2cccc(-c3cncn3C(C)C)c2)C2=C(CC(C)(C)CC2=O)Nc2n[nH]cc21 (stereo not drawn) [Compound 944026] | 
 |  | 100 to 1000 | ≤ 100 | CCC1(c2cccc(-c3cnn(C)c3C)c2)C2=C(CC(C)(C)NC2=O)Nc2n[nH]c(C)c21 (stereo not drawn) [Compound 944028] | 
100 to 1000 | ≤ 100 |  |  | CCC1(c2cccc(-c3ccnc(C(C)O)c3)c2)C2=C(CC(C)(C)CC2=O)Nc2n[nH]cc21 (stereo not drawn) [Compound 944029] | 
 |  | ≤ 100 | ≤ 100 | CCC1(c2cccc(-c3cn(C)nc3C)c2)C2=C(CC(C)(C)NC2=O)Nc2n[nH]cc21 (stereo not drawn) [Compound 944030] | 
≤ 100 | ≤ 100 |  |  | CC[C@]1(c2cccc(-c3ccnc4ccccc34)c2)C2=C(CC(C)(C)CC2=O)Nc2n[nH]cc21 [Compound 944031] | 
≤ 100 | ≤ 100 |  |  | CCC1(c2cccc(-c3cc(OC)ncc3F)c2)C2=C(CC(C)(C)CC2=O)Nc2n[nH]cc21 (stereo not drawn) [Compound 944032] | IC50 [1, 7]: 1000 to 5000 nM; IC50 [2, 8]: 100 to 1000 nM
≤ 100 | ≤ 100 |  |  | CCC1(c2cccc(-c3ccnc4c3CCCC4)c2)C2=C(CC(C)(C)CC2=O)Nc2n[nH]cc21 (stereo not drawn) [Compound 944033] | IC50 [1, 7]: 100 to 1000 nM; IC50 [2, 8]: ≤ 100 nM
> 5000 | 1000 to 5000 |  |  | CC[C@@]1(c2cccc(-c3cc(OC)ncc3F)c2)C2=C(CC(C)(C)CC2=O)Nc2n[nH]cc21 [Compound 944035] | 
> 5000 | 1000 to 5000 |  |  | CC[C@@]1(c2cccc(-c3ccnc4c3CCCC4)c2)C2=C(CC(C)(C)CC2=O)Nc2n[nH]cc21 [Compound 944036] | 
 |  | 100 to 1000 | ≤ 100 | CC1(C)CC(=O)C2=C(C1)Nc1n[nH]cc1C21COC2(CN(C(=O)C3CCC4(CC3)COC4)C2)C1 (stereo not drawn) [Compound 944075] | 
≤ 100 | ≤ 100 |  |  | CCC1(c2cccc(N(C)c3nccc(C)n3)c2)C2=C(CC(C)(C)CC2=O)Nc2n[nH]cc21 (stereo not drawn) [Compound 945328] | IC50 [1, 7]: 100 to 1000 nM; IC50 [2, 8]: ≤ 100 nM
1000 to 5000 | 100 to 1000 |  |  | CC[C@]1(c2cccc(N(C)c3nccc(C)n3)c2)C2=C(CC(C)(C)CC2=O)Nc2n[nH]cc21 [Compound 945329] | 
 |  | > 5000 | 1000 to 5000 | CCC1(c2cccc(C(F)(F)F)c2)C2=C(CC(c3ccccc3)NC2=O)Nc2n[nH]cc21 (stereo not drawn) [Compound 945363] | 
 |  | > 5000 | > 5000 | CC[C@]1(c2cccc(C(F)(F)F)c2)C2=C(C[C@H](c3ccccc3)NC2=O)Nc2n[nH]cc21 [Compound 945364] | 
 |  | 1000 to 5000 | 100 to 1000 | CCC1(c2cccc(C(F)(F)F)c2)C2=C(CN(C)C2=O)Nc2n[nH]cc21 (stereo not drawn) [Compound 945367] | 
